According to patent US10689354B2, “Aminoazole derivative” (Teijin Pharma Limited, priority 2015, dated 2020):

Assays:
human androgen receptor = biological target: T1, human androgen receptor (Homo sapiens, UniProt P10275); assay: Reporter assay of an androgen receptor responsive sequence (luciferase, transiently transfected HEK293 cells); type: cell-based; conditions: 24 hours incubation, relative to activity of 100 nM DHT, read-out: AR transcriptive activity (pEC50) (converted)
T1 construct: expressed in transfected cells; host or cells: HEK293
T1 sequence (P10275 1-920): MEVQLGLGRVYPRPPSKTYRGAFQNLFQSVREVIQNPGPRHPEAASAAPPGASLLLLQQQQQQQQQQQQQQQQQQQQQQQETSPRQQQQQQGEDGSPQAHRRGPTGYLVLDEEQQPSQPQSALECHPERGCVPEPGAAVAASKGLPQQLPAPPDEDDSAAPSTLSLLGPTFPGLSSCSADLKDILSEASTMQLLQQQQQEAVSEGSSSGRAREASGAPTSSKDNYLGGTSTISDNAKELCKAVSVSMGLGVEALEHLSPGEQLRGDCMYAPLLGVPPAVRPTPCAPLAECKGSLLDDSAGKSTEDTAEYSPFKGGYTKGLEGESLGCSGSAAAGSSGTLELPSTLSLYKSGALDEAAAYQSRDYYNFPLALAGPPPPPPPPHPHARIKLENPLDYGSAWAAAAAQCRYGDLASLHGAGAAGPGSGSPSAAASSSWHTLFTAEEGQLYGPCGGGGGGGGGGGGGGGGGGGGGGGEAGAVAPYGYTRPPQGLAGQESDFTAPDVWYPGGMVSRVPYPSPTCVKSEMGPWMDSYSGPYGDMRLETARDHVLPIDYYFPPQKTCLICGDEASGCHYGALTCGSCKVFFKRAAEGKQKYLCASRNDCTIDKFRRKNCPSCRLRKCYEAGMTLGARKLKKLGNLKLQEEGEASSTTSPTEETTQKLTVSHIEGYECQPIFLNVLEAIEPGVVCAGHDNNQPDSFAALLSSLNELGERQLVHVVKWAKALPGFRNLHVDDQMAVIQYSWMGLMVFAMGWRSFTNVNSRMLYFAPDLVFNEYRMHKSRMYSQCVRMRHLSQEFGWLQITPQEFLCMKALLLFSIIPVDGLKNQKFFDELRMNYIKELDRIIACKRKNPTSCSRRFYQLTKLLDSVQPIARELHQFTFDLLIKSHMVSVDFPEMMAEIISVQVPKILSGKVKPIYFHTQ
Procedure, shortened: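 Agonism scored as pEC50, fitted by 4-parameter curve against the response to 100 nM DHT, from dual-luciferase readout after 24 h compound treatment. Cells were HEK293 co-transfected (3 h) with human AR expression vector, androgen-responsive firefly reporter and Renilla control, in charcoal-stripped serum.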

[1] = biological target: T2, androgen receptor (AR-LBD) (Rattus norvegicus, UniProt P15207); assay: Evaluation of androgen receptor affinity (PolarScreen Androgen Receptor Competitor Assay Kit, Red; fluorescence polarization); conditions: 22° C. for 5 hours, relative to binding rate of 1 μM DHT, read-out: AR affinity (pEC50) (converted)
T2 construct: 5 μL of 2×AR-LBD/Fluoromone AL Red Complex contained in the kit; purchased Invitrogen
T2 sequence (P15207 651-882 limits assumed): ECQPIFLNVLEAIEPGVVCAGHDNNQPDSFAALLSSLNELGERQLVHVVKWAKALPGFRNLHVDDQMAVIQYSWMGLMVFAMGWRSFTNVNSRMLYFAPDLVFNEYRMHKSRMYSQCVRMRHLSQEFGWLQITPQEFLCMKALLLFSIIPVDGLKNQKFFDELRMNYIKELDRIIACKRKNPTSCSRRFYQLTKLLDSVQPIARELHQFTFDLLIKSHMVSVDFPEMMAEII
Procedure, shortened: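 Duplicate wells; compound plus AR-LBD tracer complex incubated 22° C for 5 h, then FP measured. Effect compared with 1 μM DHT; 50%-effect concentration expressed as pEC50.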

Row | EC50 (human androgen receptor) [nM] | EC50 [1] [nM] | Structure (SMILES)
1 | > 10000 | 251 | Cc1sc(N(Cc2cccc(-n3ccnc3)c2)c2ccc(C#N)cc2)nc1C(=O)NS(C)(=O)=O [Example 218, 2-[4-cyano-N-[(3-imidazol-1-ylphenyl)methyl]anilino]-5-methyl-N-methylsulfonyl-thiazole-4-carboxamide]
2 | 158 | 25.1 | CCc1oc(N(Cc2ccc(Br)c(F)c2)c2ccc(C#N)cc2)nc1C(=O)NS(C)(=O)=O [Compound 652, 2-[N-[(4-bromo-3-fluoro-phenyl)methyl]-4-cyano-anilino]-5-ethyl-N-methylsulfonyl-oxazole-4-carboxamide]
3 | > 10000 | 79.4 | Cc1sc(N(CCCCOc2ccccc2)c2ccc(C#N)cc2)nc1C(=O)NS(C)(=O)=O [Compound 369, 2-[4-cyano-N-(4-phenoxybutyl)anilino]-5-methyl-N-methylsulfonyl-thiazole-4-carboxamide]
4 | 631 | 251 | COCCCS(=O)(=O)NC(=O)c1nc(N(Cc2ccc(C(F)(F)F)nc2)c2ccc(C#N)cc2)sc1C [Compound 164, 2-[4-cyano-N-[[6-(trifluoromethyl)-3-pyridyl]methyl]anilino]-N-(3-methoxypropylsulfonyl)-5-methyl-thiazole-4-carboxamide]
5 | 126 | 50.1 | Cc1sc(N(Cc2ccc(F)cc2F)c2ccc(C#N)cc2)nc1C(=O)NS(C)(=O)=O [Compound 104, 2-[4-cyano-N-[(2,4-difluorophenyl)methyl]anilino]-5-methyl-N-methylsulfonyl-thiazole-4-carboxamide]
6 | 6310 | 316 | Cc1sc(N(Cc2ccccc2)c2ccc(C#N)cc2)nc1C(=O)NS(=O)(=O)Cc1ccccn1 [Compound 396, 2-(N-benzyl-4-cyano-anilino)-5-methyl-N-(2-pyridylmethylsulfonyl)thiazole-4-carboxamide]
7 | 631 | 63.1 | Cc1sc(N(Cc2c(F)cccc2F)c2ccc(C#N)cc2)nc1C(=O)NS(C)(=O)=O [Compound 124, 2-[4-cyano-N-[(2,6-difluorophenyl)methyl]anilino]-5-methyl-N-methylsulfonyl-thiazole-4-carboxamide]
8 | > 10000 | 398 | Cc1sc(N(CCC(C)(C)C)c2ccc(C#N)cc2)nc1C(=O)NS(C)(=O)=O [Compound 90, 2-[4-cyano-N-(3,3-dimethylbutyl)anilino]-5-methyl-N-methylsulfonyl-thiazole-4-carboxamide]
9 | 631 | 39.8 | Cc1sc(N(Cc2ccc3nonc3c2)c2ccc(C#N)cc2)nc1C(=O)NS(C)(=O)=O [Compound 361, 2-[N-(2,1,3-benzoxadiazol-5-ylmethyl)-4-cyano-anilino]-5-methyl-N-methylsulfonyl-thiazole-4-carboxamide]
10 | 251 | 50.1 | Cc1sc(N(CC2Cc3ccccc3C2)c2ccc(C#N)cc2)nc1C(=O)NS(C)(=O)=O [Compound 454, 2-[4-cyano-N-(indan-2-ylmethyl)anilino]-5-methyl-N-methylsulfonyl-thiazole-4-carboxamide]
11 | 398 | 39.8 | CCc1oc(N(Cc2ccc(C(F)(F)F)c(F)c2)c2ccc(C#N)cc2)nc1C(=O)NS(C)(=O)=O [Compound 655, 2-[4-cyano-N-[[3-fluoro-4-(trifluoromethyl)phenyl]methyl]anilino]-5-ethyl-N-methylsulfonyl-oxazole-4-carboxamide]
12 | > 10000 | 50.1 | CS(=O)(=O)NC(=O)c1nc(N(Cc2ccc(OC(F)F)cc2)c2ccc(C#N)cc2)oc1C1CC1 [Compound 648, 2-[4-cyano-N-[[4-(difluoromethoxy)phenyl]methyl]anilino]-5-cyclopropyl-N-methylsulfonyl-oxazole-4-carboxamide]
13 | 5010 | 100 | CS(=O)(=O)NC(=O)c1nc(N(Cc2ccc(Cl)cn2)c2ccc(C#N)cc2)sc1C1CC1 [Compound 658, 2-[N-[(5-chloro-2-pyridyl)methyl]-4-cyano-anilino]-5-cyclopropyl-N-methylsulfonyl-thiazole-4-carboxamide]
14 | 2000 | 39.8 | COc1cccc(CN(CCc2ccc(OC(F)(F)F)cc2)c2nc(C(=O)NS(C)(=O)=O)c(C)s2)n1 [Compound 505, 2-[(6-methoxy-2-pyridyl)methyl-[2-[4-(trifluoromethoxy)phenyl]ethyl]amino]-5-methyl-N-methylsulfonyl-thiazole-4-carboxamide]
15 | 398 | 126 | Cc1sc(N(Cc2ccc(OC(F)F)cc2)c2ccc(C(F)(F)F)nc2)nc1C(=O)NS(C)(=O)=O [Compound 472, 2-[[4-(difluoromethoxy)phenyl]methyl-[6-(trifluoromethyl)-3-pyridyl]amino]-5-methyl-N-methylsulfonyl-thiazole-4-carboxamide]
16 | 100 | 63.1 | CS(=O)(=O)NC(=O)c1nc(N(Cc2cccc(F)c2)c2ccc(C#N)cc2)sc1Cl [Example 258, 5-chloro-2-[4-cyano-N-[(3-fluorophenyl)methyl]anilino]-N-methylsulfonyl-thiazole-4-carboxamide]
17 | 2000 | 25.1 | Cc1sc(N(CCc2ccc(C#N)cc2)Cc2ccc(OC(F)(F)F)cc2)nc1C(=O)NS(=O)(=O)Cc1ccncc1 [Compound 742, 2-[2-(4-cyanophenyl)ethyl-[[4-(trifluoromethoxy)phenyl]methyl]amino]-5-methyl-N-(4-pyridylmethylsulfonyl)thiazole-4-carboxamide]
18 | > 10000 | > 2000 | Cc1sc(N(CC2CCN(C)CC2)c2ccc(C#N)cc2)nc1C(=O)NS(C)(=O)=O [Compound 351, 2-[4-cyano-N-[(1-methyl-4-piperidyl)methyl]anilino]-5-methyl-N-methylsulfonyl-thiazole-4-carboxamide]
19 | 1000 | 50.1 | Cc1oc(N(CCc2ccc(OC(F)(F)F)cc2)Cc2nc(C3CC3)no2)nc1C(=O)NS(C)(=O)=O [Compound 560, 2-[(3-cyclopropyl-1,2,4-oxadiazol-5-yl)methyl-[2-[4-(trifluoromethoxy)phenyl]ethyl]amino]-5-methyl-N-methylsulfonyl-oxazole-4-carboxamide]
20 | 100 | 200 | Cc1sc(N(Cc2ccc(Cl)cn2)c2ccc(C#N)cc2)nc1C(=O)NS(C)(=O)=O [Compound 152, 2-[N-[(5-chloro-2-pyridyl)methyl]-4-cyano-anilino]-5-methyl-N-methylsulfonyl-thiazole-4-carboxamide]
21 | 501 | 39.8 | Cc1sc(N(Cc2ccc(OC(F)F)nc2)c2ccc(C#N)cc2)nc1C(=O)NS(C)(=O)=O [Compound 524, 2-[4-cyano-N-[[6-(difluoromethoxy)-3-pyridyl]methyl]anilino]-5-methyl-N-methylsulfonyl-thiazole-4-carboxamide]
22 | 794 | 79.4 | Cc1sc(N(CCC(C)C)c2ccc(C#N)cc2)nc1C(=O)NS(C)(=O)=O [Compound 66, 2-(4-cyano-N-isopentyl-anilino)-5-methyl-N-methylsulfonyl-thiazole-4-carboxamide]
23 | 2510 | 100 | Cc1sc(N(Cc2ccccc2)c2ccc(Cl)cc2)nc1C(=O)NS(C)(=O)=O [Compound 31, 2-(N-benzyl-4-chloro-anilino)-5-methyl-N-methylsulfonyl-thiazole-4-carboxamide]
24 | 631 | 398 | Cc1sc(N(Cc2ccccc2)c2ccc(C(F)(F)F)nc2)nc1C(=O)NS(C)(=O)=O [Example 223, 2-[benzyl-[6-(trifluoromethyl)-3-pyridyl]amino]-5-methyl-N-methylsulfonyl-thiazole-4-carboxamide]
